Reference: US20220347306A1, “SELECTIVE DELIVERY OF THERAPEUTIC AND IMAGING AGENTS” (priority 2018, published 2022)
pEC50: −log10 of the molar value.

Legend:
[1] = Body weight (tolerability and toxicity) in human HT1080 fibrosarcoma xenograft model; conditions: 1 mg/kg of the cytotoxic agent component, IV on days 0 and 3
Procedure: (§1) Female athymic nude mice (8-10 weeks old) purchased from Charles River (Wilmington, 01887, MA) were used after 4-7 day of acclimatization period. […] Human fibrosarcoma tumor cells from ATCC (CCL-121™) were grown using standard cell culture techniques. Tumor cells (1×10^8 tumor cells/mL) were suspended in DPBS/Matrigel™ (1:1 vol) and implanted subcutaneously (50 μL tumor cell suspension/mouse) into the upper mammary fat pad or right flank of mice with individual identification number (ear tag). Four to seven days later when the average tumor volume was about 50-100 mm^3, mice were randomized into different experimental groups based on identical averaged (Mean±SEM) tumor volume and dosed with (i) vehicle and (ii) different doses of test compounds. For each involved tumor-bearing mouse, the tumor volume (mm^3) was measured using a caliper and calculated as follows: tumor volume=width^2×length/2. Test compounds were administered intravenously (tail vein) twice (two administrations 3 days apart) in conscious restrained tumor-bearing mice throughout the study. Individual tumor volume, body weight as well as clinical signs were recorded during the study. Each study was terminated on day 12 post-dosing initiation. […] For each experimental group and study day, the tumor volumes from all involved mice were averaged and expressed as Mean±SEM. […]

[2] = test system: HT1080 human fibrosarcoma subcutaneous tumor xenograft; assay: Human fibrosarcoma tumor xenograft therapeutic model, tumor growth; format: in vivo, athymic nude mice; conditions: dosed at 0.6 to 3.0 mg/kg of cytotoxic payload component, intravenously twice 3 days apart, evaluated day 9
Procedure: as §1

[3] = test system: HT1080 fibrosarcoma cells; assay: Cancer cell viability assay using human HT1080 fibrosarcoma cells; format: cell-based; conditions: four days incubation, reduction of viable cells, SDM as such
Procedure: Method: Plate cells one day prior to start of assay in 96 well black with clear bottom plates (Corning #3603), 2×10^4 cells per well in 100 μL of standard growth media (according to ATCC). Grow cells to 90% confluency.
Before start of assay rinse cells IX with DPBS. Add compounds in a 3-fold serial dilution in triplicate (range e.g. 8.1 μM-3.7 nM), 100 μL per well in standard growth media.
Incubate four days then assay cell viability as described below. Remove media and rinse IX with DPBS, then add 100 μL per well 10% Prestoblue Cell viability reagent (Thermo Fisher Scientific #A13261) in complete media. Return to incubator for two hours then read plate on SpectraMax M2e, bottom read excitation 555 emission 585 cut-off 570 which measures number of live cells. […] In most cases, SDMs were also tested in activated form by pre-treatment with protease that activates the compound. […] In Table 9 this is represented as ACT SDM-200.

SMILES | Tolerability (FIG. 3B) [1] | Weight loss (body weight normalized to day 1, FIG. 3B) [1] | Efficacy (percent tumor growth inhibition versus vehicle) [2] | pEC50 [3]
[2H]C(=O)OCc1ccc(NC(=O)[C@H](CCCNC(N)=O)NC(=O)[C@@H](NC(=O)CCCCCN2C(=O)C=CC2=O)C(C)C)cc1 [SDM-155] | not tolerated | > 20% | – | –
[2H]CC(NC(=O)C(CCCNC(=N)N)NC(=O)[C@H](CCCNC(=N)N)NC(=O)[C@@H](CCCNC(=N)N)NC(=O)[C@H](CCCNC(=N)N)NC(=O)[C@@H](CCCNC(=N)N)NC(=O)[C@H](CCCNC(=N)N)NC(=O)[C@@H](CCCNC(=N)N)NC(=O)[C@H](CCCNC(=N)N)NC(=O)C(CO)NC(=O)[C@H](CCCNC(=N)N)NC(=O)[C@H](Cc1c[nH]c2ccccc12)NC(=O)C(CC(C)C)NC(=O)C(C)NC(=O)[C@H](CC(C)C)NC(=O)[C@@H]1CCCN1C(=O)[C@H](CCCNC(=N)N)NC(=O)COCCNC(=O)C(Cc1ccc(C(C)=O)cc1)NC(=O)[C@@H](CCC(=O)O)NC(=O)[C@@H](CCC(=O)O)NC(=O)[C@@H](CCC(=O)O)NC(=O)[C@@H](CCC(=O)O)NC(=O)[C@@H](CCC(=O)O)NC(=O)CCN1C(=O)C=CC1=O)C(N)=O (some centres unmarked) [SDM-173] | – | – | High (High: ≥80% inhibition) | –
CC[C@H](C)C([C@@H](CC(=O)N1CCCC1[C@H](OC)[C@@H](C)C(=O)N[C@@H](Cc1ccccc1)C(=O)O)OC)N(C)C(=O)[C@@H](NC(=O)[C@H](C(C)C)N(C)C(=O)CNC(=O)[C@H](CCCNC(N)=O)NC(=O)[C@@H](NC(=O)[C@H](Cc1ccc(/C(C)=N\OCCCCCC(=O)N[C@@H](CC(=O)O)C(=O)NC(CC2CCCCC2)C(=O)NC(Cc2ccccc2)C(=O)N[C@H](CO)C(=O)N[C@H](CCCNC(N)N)C(=O)N[C@@H](Cc2ccc(O)cc2)C(=O)N[C@@H](CC(C)C)C(=O)N[C@@H](Cc2c[nH]c3ccccc23)C(=O)N[C@@H](CO)C(N)=O)cc1)NC(=O)CCCCCN1C(=O)C=CC1=O)C(C)C)C(C)C (some centres unmarked) [SDM-185] | – | – | Medium (Medium: ≥29% inhibition to < 80% inhibition) | > 6.52
